In patent publication US20170360991A1, “DRUG COMPOSITION AND COATING” (W. L. GORE & ASSOCIATES, INC., priority 2015, published 2017):
Counter-ions that a name gives are not always drawn. Blank lines part the entries; values can stand above or below the compound they belong to.

What was measured:
[1] = Ethylene oxide stability of cast paclitaxel-excipient films; type: physicochemical; conditions: mean of N = 3
Experimental: Approximately 30 mg of excipient was weighed into a 7 mL glass vial and 6 mL of 75/25 v/v acetone/water was added. A small stirrer bar was added to each vial and all samples were stirred overnight at room temperature to ensure full dissolution. Next, a stock solution of paclitaxel in the casting solvent was made at 5 mg/mL. A specific volume of paclitaxel stock and excipient stock was added to a new vial to achieve the target paclitaxel/excipient weight fraction listed in Table 6. The vials were then mixed and aliquoted to N=6 of the 20 mL vials (0.5 mL each). A paclitaxel-only control was also added to N=6 vials (0.25 mL each). All vials were left in a fume hood overnight to evaporate the solvents. After drying, the samples were capped with cellulose membranes cut to septa size to allow ethylene oxide and moisture permeability. All samples were packaged in breathable polyethylene pouches. N=3 of each paclitaxel/excipient mixture were kept as non-sterilized controls, and the remainder (N=3) were sent for ethylene oxide sterilization (see Test Method D). Non-sterilized controls were stored at room temperature prior to analysis. Paclitaxel content analysis was performed as described in the Evaluation Methods section. Percent paclitaxel recovery was calculated by normalizing to either theoretical initial loading or pre-sterilized samples.

[2] = Ethylene oxide sterilization instability of paclitaxel-niacinamide formulations; conditions: additive formulated with paclitaxel as solid coating
[3] = acetone, ethanol and aqueous mixtures thereof
Excerpt: As discussed in further detail below, coatings of the invention can be prepared by pipetting a solution containing therapeutic agent and excipient onto the device to be coated. […] Thus, in one embodiment the organic additive is not thiamine-HCl.

[4] = Early experiments on stability of organic additive in solution; type: physicochemical
Excerpt: Thus, vanillin is not suitable as an organic additive for the present invention.

% PTX recovery, pre vs. post ([1]; cast formulations post ethylene oxide sterilization, normalized to pre-sterilized samples): 101.7%
% PTX recovery, theoretical vs. pre ([1]; cast formulations pre-sterilization, normalized to theoretical loading): 98.2%
SMILES: CC(=O)O[C@H]1C(=O)[C@@]2(C)[C@H]([C@H](OC(=O)c3ccccc3)[C@]3(O)C[C@H](OC(=O)[C@H](O)[C@@H](NC(=O)c4ccccc4)c4ccccc4)C(C)=C1C3(C)C)[C@]1(OC(C)=O)CO[C@@H]1C[C@@H]2O [PTX only, paclitaxel]

SMILES: O=C([O-])c1ccccc1O.[Na+] [sodium salicylate]
paclitaxel degradation on ethylene oxide sterilization [2]: cause degradation of the paclitaxel

solubility [3]: poor solubility
SMILES: Cc1ncc(C[n+]2csc(CCO)c2C)c(N)n1 [thiamine-HCl]

stability in solution [4]: easily degraded in solution
SMILES: COc1cc(C=O)ccc1O [vanillin]
